Series [1] relates to Sulfate Reducing Bacteria. The experiment in a line: MICkit microbiological testing of pipe water and scrapings, sulfate reducing bacteria. It counts as cell-based. The procedure: (§1) One end cap of the pipe was removed and the contaminated water poured out of the pipe and a pre-sterilization sample of the water and scrapings from the interior pipe wall were taken under sterile conditions for microbiological testing employing a MICkit™ supplied by Bioindustrial Technologies, Inc., Georgetown, Tex. The microbiological samples were incubated for three weeks at 35° C. and observed for microbiological growth.
(§2) Steam was then injected into the test pipe by opening the ball valve slowly with the steam pressure at 30 lbs pressure (135° C.). The temperature at the end of the test pipe rapidly rose to 94° C. and then appeared to remain nearly constant. The ball valve was then closed and the pipe cooled to room temperature. The condensate water and scrapings from the interior of the test pipe were collected by removal of the pipe from the adapter under sterile conditions. The samples so collected were microbiologically tested as above.
(§3) The end cap was then replaced with a ball valve and the steam sterilization was repeated. The ball valve at the end of the pipe was opened slightly to allow condensate and live steam to escape. The temperature at the end of the pipe rapidly rose to 110° C. The test was terminated by closing the ball valves and allowing the pipe to cool to room temperature. The pipe was again sampled for microbiological testing as above.
(§4) Microbiologically contaminated water was obtained from a “dead end” water feed-line to a fire protection system and was assayed microbiologically using the MICkit™ giving the following results after only 2 days of incubation at 35° C.:
(§5) The steam was allowed to slowly enter the pipe by regulating the input ball valve with the outlet ball valve open. Steam flowed through the pipe, heating it rapidly to near 100° C. The outlet ball valve was then nearly closed allowing the steam pressure in the pipe to increase. The temperature at the end of the pipe reached 135° C. and was kept there for five minutes. The inlet and outlet ball valves were closed and the pipe with the valves closed was removed and cooled in a stream of water. A small amount of sterile water (autoclaved at 121° C. for 15 minutes) was added to the sterilized pipe and the pipe raised, lowered and rotated to rinse the inside of the pipe system. The pipe was then opened and the water and scrapings from the side of the pipe were taken using sterile techniques for microbiological analysis.
(§6) The drained pipe was then sterilized as in Example 2 (per FIG. 2) using steam and a temperature of 135° C. by controlling the inlet and outlet ball valves. The ball valves at the ends of the pipe were then closed, the pipe removed from the test station and cooled with water. A small amount of sterile water was introduced and the inside of the pipe rinsed with it for several minutes. The pipe was then opened and the water and scrapings from the side of the pipe taken for microbiological analysis.

For series [2], the system named is Acid Producing Bacteria. The experiment in a line: MICkit microbiological testing of pipe water and scrapings, acid producing bacteria. Format: cell-based. As for the experimental part: as §1, §2, §3, §4, §5, §6
Series [3] concerns Low Nutrient Bacteria. The experiment in a line: MICkit microbiological testing of pipe water and scrapings, low nutrient bacteria. Format: cell-based. As for the experimental part: as §1, §2, §3, §4, §5, §6
For series [4], the system named is Iron Related Bacteria. The experiment in a line: MICkit microbiological testing of pipe water and scrapings, iron related bacteria. Format: cell-based. The procedure:
as §1, §2, §3, §4, §5, §6

Series [5] concerns aerobic bacteria (colony forming units). The experiment in a line: Aerobic plate count of pipe water and scrapings. Format: cell-based. As for the experimental part: Microbiologically contaminated water was obtained from a “dead end” water feed-line to a fire protection system and was assayed microbiologically using the […] giving the following results after only 2 days of incubation at 35° C.: [table] The steam was allowed to slowly enter the pipe by regulating the input ball valve with the outlet ball valve open. Steam flowed through the pipe, heating it rapidly to near 100° C. The outlet ball valve was then nearly closed allowing the steam pressure in the pipe to increase. The temperature at the end of the pipe reached 135° C. and was kept there for five minutes. The inlet and outlet ball valves were closed and the pipe with the valves closed was removed and cooled in a stream of water. A small amount of sterile water (autoclaved at 121° C. for 15 minutes) was added to the sterilized pipe and the pipe raised, lowered and rotated to rinse the inside of the pipe system. The pipe was then opened and the water and scrapings from the side of the pipe were taken using sterile techniques for microbiological analysis. The drained pipe was then sterilized as in Example 2 (per FIG. 2) using steam and a temperature of 135° C. by controlling the inlet and outlet ball valves. The ball valves at the ends of the pipe were then closed, the pipe removed from the test station and cooled with water. A small amount of sterile water was introduced and the inside of the pipe rinsed with it for several minutes. The pipe was then opened and the water and scrapings from the side of the pipe taken for microbiological analysis.

The nature of series [6]: Analysis of residual sodium hypochlorite in water standing in iron pipe. Format: physicochemical. As to conditions: 50 ppm in potable tap water in iron pipe, ambient temperature, after 24 hours. From the text:
The sterilized pipe from Example 2 was then filled with potable tap water containing 50 ppm sodium hypochlorite and allowed to stand at ambient temperature. The sodium hypochlorite, being an oxidizing agent, rapidly dissipated when in contact with the interior iron pipe surface.

Where [7] appears, read: Example 3, steam-sterilized pipe filled with potable tap water containing 50 ppm sodium hypochlorite, 24 hours plus seven days at ambient temperature.
Where [8] appears, read: Example 5, sterilized pipe recontaminated 16 hours with dead end water, then tap water with 50 ppm sodium hypochlorite overnight, incubation 15 days.
Setting [9] is: Example 1, contaminated 1-inch sprinkler pipe, steam, pipe end 94° C., capped end, incubated three weeks at 35° C.
Setting [10] is: Example 1, steam repeated with outlet ball valve, pipe end 110° C., incubated three weeks at 35° C.
The mark [11] stands for this setting: Example 2, new pipe infected with dead end water, steam 135° C. for five minutes, incubation 15 days.
[12] abbreviates: Example 4, chemically cleaned contaminated pipe, steam 135° C., after 15 days.

In the case of `OCl` [sodium hypochlorite, reference compound], the SRB entry in series [1] (setting [7]) and in series [1] (setting [8]) was “negative” in each case. Moreover, the APB result in series [2] (setting [7]) and in series [2] (setting [8]) was “negative” each time. Moreover, the LNB result in series [3] (setting [7]) is “negative”; in series [3] (setting [8]), “positive”. For the same molecule, the IRB entry in series [4] (setting [7]) and in series [4] (setting [8]) was “negative” in each case. The APC in series [5] (setting [7]) and in series [5] (setting [8]) was < 1 colony forming units per mil in each case. Also, the “sodium hypochlorite remaining in the water” value in series [6] worked out at 0 ppm.
As for `O` [steam], the SRB result in series [1] (setting [9]) is on record as “Negative”; in series [1] (setting [10]), “Negative”; in series [1] (setting [11]), “negative”; in series [1] (setting [12]), “negative”. The APB result is reported as “Negative” in series [2] (setting [9]), “Negative” in series [2] (setting [10]), “negative” in series [2] (setting [11]) and “negative” in series [2] (setting [12]). Besides, the LNB result is “Negative” in series [3] (setting [9]), “Negative” in series [3] (setting [10]), “negative” in series [3] (setting [11]) and “negative” in series [3] (setting [12]). Also, the IRB result in series [4] (setting [9]) was “Negative”; in series [4] (setting [10]), “Negative”; in series [4] (setting [11]), “negative”; in series [4] (setting [12]), “negative”. Further, the APC in series [5] (setting [11]) and in series [5] (setting [12]) was < 1 colony forming units per mil in each case.

These data come from patent publication US6960321B1, “Sterilization of fire sprinkler systems” (priority 1999, dated 2005).
